Our source for the MIC, zone of inhibition and DDA values is patent publication US20090030086A1, “ANTIMICROBIAL AGENTS” (priority 2005, published 2009).

Values after ≈ are worked out from the molar mass of the structure shown.

In test [1] the test system is S. pyogenes ATCC 12344. The test can be described thus: MIC assay. It counts as cell-based. Particulars: Streptococcus pyogenes, ATCC12344. An excerpt:
3. Streptococcus pyogenes ATCC 12344—this is a Gram-positive […] bacterium; it is a member of the group A β-haemolytic streptococci which are occasional upper respiratory tract commensals in humans (10% of children, commensal carriage uncommon in adults, its main occurrence is as the agent of tonsillitis). It is clinically significant in the context of skin infections, being a causative agent of cellulitis, necrotising fasciitis, impetigo, erysipelas, wound infections and scarlet fever. Penicillin and erythromycin are the standard treatments for infections involving S. pyogenes. […] S. pyogenes is also a major cause of upper respiratory tract infections. […]
(§1) This is a standard international method for quantitatively assessing the antimicrobial activity of a compound in a liquid medium. […]
(§2) The wells were inoculated with a liquid suspension of freshly grown micro-organism and incubated under the conditions described above. […] The MIC value was recorded as the lowest concentration of test compound required to inhibit microbial growth, i.e., the lowest concentration for which the liquid in the well remained clear. […]

In test [2] the test system is S. aureus ATCC 29213. The test is described as follows: Disc diffusion assay (DDA). Format: cell-based, Staphylococcus aureus. Particulars: Staphylococcus aureus, ATCC29213; S. aureus ATCC 29213; unsupplemented agar; 200 μg per disc (thymoquinone 50 μg, 2,6-dimethoxy-p-benzoquinone 100 μg); read-out: DDA (diameter of zone of inhibition). In short, it runs like this:
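Paper discs loaded with test compound (usually 200 μg/disc), solvent evaporated ≥30 min, placed on inoculated Mueller-Hinton agar pH 7.2. Incubated aerobically at 37 °C for 24 h; inhibition zone diameter measured and area calculated as π(D/2)^2.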
Background: A growth-free zone around the sample is the usual read-out of agar diffusion tests.

The subject of test [3] is P. granulosum PRP-055. The test can be described thus: Disc diffusion assay (DDA). Format: cell-based. As to conditions: resistance None, 200 μg per disc. How it is done: (§3) The Propionibacterium spp organisms were cultured and maintained on Wilkins-Chalgren Anaerobe Medium (agar and broth) at pH 6.0; cultures were incubated anaerobically at 37° C. for 72 hours.
(§4) A sterile paper disc was impregnated with a sample of the test compound and a minimum of 30 minutes allowed for the solvents to evaporate as far as possible. The disc was then placed on an agar plate onto which the test micro-organism had been inoculated. The plate was then incubated under the conditions described above, following which it was examined visually for signs of bacterial growth. If the test compound had antimicrobial activity, a circular zone of no growth would be obtained around the disc. The diameter of this zone of “inhibition” was measured using a ProtoCOL™ automated zone sizer (Synbiosis, Cambridge, UK). In general, a greater diameter and/or area of the zone of inhibition indicates a greater antimicrobial activity in the relevant test compound, although other factors such as test compound mobility through the agar gel may also influence the result.
(§5) The area of the zone of inhibition was calculated from the measured zone diameter (D) using the formula π(D/2)^2.
(§6) For the DDA assays, 200 μg of TBHQ was loaded onto each disc. The solvent used for the TBHQ was ethanol.

The subject of test [4] is P. granulosum PRP-044. The test is described as follows: Disc diffusion assay (DDA). It counts as cell-based. As to conditions: resistance MLS, 200 μg per disc. How it is done:
as §3, §4, §5, §6

For test [5], the system named is P. granulosum PRP-005. The test is described as follows: Disc diffusion assay (DDA). It counts as cell-based. Particulars: resistance MLSK, 200 μg per disc. How it is done: as §3, §4, §5, §6
Test [6] concerns P. granulosum PRP-043. The test can be described thus: Disc diffusion assay (DDA). Format: cell-based. Particulars: resistance MLS, 200 μg per disc. How it is done: as §3, §4, §5, §6
Test [7] has as its system P. granulosum PPR-006. The test is described as follows: Disc diffusion assay (DDA). Particulars: resistance MLS, 200 μg per disc. Format: cell-based. How it is done: as §3, §4, §5, §6
The test system of test [8] is H. influenzae ATCC 49247. The test is described as follows: MIC assay. It counts as cell-based. Particulars: Haemophilus influenzae, ATCC49247.
Description: 5. Haemophilus influenzae ATCC 49247—a member of the genus Haemophilus, these organisms are Gram-negative bacilli which grow under aerobic or anaerobic conditions but require media with special supplements for laboratory culture. Strains of H. influenzae may be capsulated or non-capsulated. The capsulate strains are divided into serotypes, (designated b,c,d,e,f), on the basis of capsular antigens. The serotype H. influenzae type b is an important cause of invasive infections in humans, particularly in young children. The non-capsulate strains are common commensals in the upper respiratory tract, although there are also some healthy carriers of the type b strain. In the context of skin and topical treatments, H. influenzae can be a cause of cellulitis and otitis media (middle ear infection), again particularly in young children. […]
as §1, §2

Test [9] has as its system S. pyogenes ATCC 12344. The test can be described thus: Disc diffusion assay (DDA). It counts as cell-based, Streptococcus pyogenes. As to conditions: 200 μg per disc. How it is done:
The S. pyogenes strain was cultured and maintained on Mueller-Hinton agar with 5% v/v defibrinated horse blood, and grown in Mueller-Hinton broth supplemented with 5% lysed horse blood (lysed horse blood was prepared as described in the NCCLS M7-A6 Vol. 23 No. 2); cultures were incubated aerobically at 37° C. for 24 hours.
as §4
The area of the zone of inhibition was calculated from the measured zone diameter (D) using the formula π(D/2)^2. […]

In test [10] the test system is P. acnes NCTC 737. The test can be described thus: Disc diffusion assay (DDA). Particulars: Cutibacterium acnes, NCTC737; P. acnes NCTC 737; unsupplemented agar; 200 μg per disc (2,6-dimethoxy-p-benzoquinone 100 μg); read-out: DDA (diameter of zone of inhibition). Format: cell-based, Propionibacterium acnes.
In test [11] the test system is P. granulosum PPR-006. The test can be described thus: MIC assay. Format: cell-based. How it is done:
as §3
This is a standard international method for quantitatively assessing the antimicrobial activity of a compound in a liquid medium. The method used a 96-well microtitre plate, capable of holding about 200 μl of liquid per well. […] The culture media were as described above for the relevant test organisms.
The wells were inoculated with a liquid suspension of freshly grown micro-organism and incubated under the conditions described above. After incubation, the microtitre plate was examined visually (with the aid of a light box) for cloudiness in each well, which would indicate microbial growth. The MIC value was recorded as the lowest concentration of test compound required to inhibit microbial growth, i.e., the lowest concentration for which the liquid in the well remained clear.
The assays were conducted in duplicate and included both negative (culture medium only) and positive (culture medium, diluting solvent and inoculum) controls.
The activity of TBHQ was tested against other Propionibacterium spp strains, including some with known antibiotic resistance. MIC, MBC and DDA assays were carried out as described above for each of the strains.

One may read the zone of inhibition as the size of the clear area around the sample on an inoculated plate. In the case of `CC(C)(C)c1cc(O)ccc1O` [TBHQ, 2-t-butyl hydroquinone], the values for the MIC in [1], in [8] and in test [11] were 62.5 to 125 µg/mL (≈ 376 to 752 µM), 15.6 µg/mL (≈ 93.9 µM) and 7.8 µg/mL (≈ 46.9 µM), respectively. Besides, the zone of inhibition at 200 µg/disc in [2] was 41.8 mm; in test [10], 9.95 mm. For the same compound, the DDA in test [3] was 13.07 mm; in [4], 10.70 mm; in test [5], 0.00 mm; in test [6], 10.56 mm; in [7], 20.00 mm; in test [9] it was 50.67 mm.
